Activity calls are given as the source filed them.
How the values were obtained:
[1] = target: Neuropeptide Y receptor type 2 (Homo sapiens, UniProt P49146); experiment: NPY-Y2 antagonist potency, selectivity check, dose response, counter-screen for NPY-Y1 antagonist project, cell-based (AID 1278); format: functional
[2] = target: Neuropeptide Y receptor type 1 (Homo sapiens, UniProt P25929); experiment: NPY-Y1 receptor antagonist potency, dose response, cell-based (AID 1277); format: functional
Chain of Neuropeptide Y receptor type 1 (P25929 whole entry): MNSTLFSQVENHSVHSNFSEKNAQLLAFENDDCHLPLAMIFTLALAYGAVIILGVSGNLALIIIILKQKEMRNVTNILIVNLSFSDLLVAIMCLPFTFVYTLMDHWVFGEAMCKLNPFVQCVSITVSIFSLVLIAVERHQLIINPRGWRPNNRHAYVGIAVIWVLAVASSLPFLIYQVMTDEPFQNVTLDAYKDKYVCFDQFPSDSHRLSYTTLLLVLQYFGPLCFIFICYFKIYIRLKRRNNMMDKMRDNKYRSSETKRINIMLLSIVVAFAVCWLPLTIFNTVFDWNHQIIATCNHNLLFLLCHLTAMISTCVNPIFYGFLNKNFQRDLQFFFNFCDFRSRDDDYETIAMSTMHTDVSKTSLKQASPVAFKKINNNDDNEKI

[3] = system: Streptococcus sp. 'group A'; experiment: growth inhibition of control SK(-) GAS strain, dose response, counter-screen for streptokinase expression inhibitor project, luminescence, kanamycin, BacTiterGlo, confirmation (AID 1900); format: functional, organism-based
Streptococcus = experiment: Group A Streptococcus viability loss, dose response, counter-screen for streptokinase expression inhibitor project, luminescence, BacTiterGlo (AID 1915); format: functional, organism-based;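 also: potency for reduction of bacterial viability or growth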
[4] = target: Photoreceptor-specific nuclear receptor (Homo sapiens, UniProt Q9Y5X4); format: functional, cell-based;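 also: CHO-S cells with Gal4-NCOR and VP16-NR2E3 two-hybrid luciferase reporter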
Chain of Photoreceptor-specific nuclear receptor (Q9Y5X4 whole entry, the tested form may be a part): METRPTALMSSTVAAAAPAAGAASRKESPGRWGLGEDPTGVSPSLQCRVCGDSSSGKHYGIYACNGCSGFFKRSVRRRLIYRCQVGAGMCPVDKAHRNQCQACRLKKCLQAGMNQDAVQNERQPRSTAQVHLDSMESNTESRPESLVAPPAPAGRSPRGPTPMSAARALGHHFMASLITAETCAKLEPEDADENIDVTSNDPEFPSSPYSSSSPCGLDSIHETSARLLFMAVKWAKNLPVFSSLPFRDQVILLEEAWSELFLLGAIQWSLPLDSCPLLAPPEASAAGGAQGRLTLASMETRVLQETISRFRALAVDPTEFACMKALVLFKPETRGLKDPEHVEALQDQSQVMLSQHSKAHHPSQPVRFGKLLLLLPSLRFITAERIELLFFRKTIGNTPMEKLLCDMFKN

Mucolipin-3 = Mucolipin-3 (Homo sapiens, UniProt Q8TDD5); experiment: Dose response cell-based high-throughput screening assay for agonists of the transient receptor potential channel ML3 (TRPML3). [Related pubchem assays: 1526, 1424, 1448 ]; format: functional
Chain of Mucolipin-3 (Q8TDD5 whole entry): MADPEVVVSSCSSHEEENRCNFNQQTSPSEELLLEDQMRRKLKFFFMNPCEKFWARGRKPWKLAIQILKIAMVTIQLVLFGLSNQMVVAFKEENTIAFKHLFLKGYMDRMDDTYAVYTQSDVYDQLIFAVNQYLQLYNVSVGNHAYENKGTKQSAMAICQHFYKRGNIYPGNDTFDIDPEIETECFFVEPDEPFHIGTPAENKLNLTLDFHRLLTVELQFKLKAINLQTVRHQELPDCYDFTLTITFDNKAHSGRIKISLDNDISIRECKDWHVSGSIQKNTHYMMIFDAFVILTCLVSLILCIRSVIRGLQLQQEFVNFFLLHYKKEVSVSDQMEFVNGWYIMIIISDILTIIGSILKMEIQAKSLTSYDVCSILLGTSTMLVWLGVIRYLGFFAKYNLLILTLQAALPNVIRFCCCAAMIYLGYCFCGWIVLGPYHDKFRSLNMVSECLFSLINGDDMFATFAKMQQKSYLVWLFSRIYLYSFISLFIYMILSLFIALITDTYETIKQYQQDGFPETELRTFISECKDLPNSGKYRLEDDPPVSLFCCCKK

Ion channel NompC = Ion channel NompC (Danio rerio, UniProt Q7T1G6); experiment: Fluorescence counterscreen assay for TRPML3 agonists: dose response cell-based high-throughput screening assay to identify agonists of the transient receptor potential channel N1 (TRPN1). [Related pubchem assays: 1526, 1424, 1448 ]; format: functional
Chain of Ion channel NompC (Q7T1G6 whole entry): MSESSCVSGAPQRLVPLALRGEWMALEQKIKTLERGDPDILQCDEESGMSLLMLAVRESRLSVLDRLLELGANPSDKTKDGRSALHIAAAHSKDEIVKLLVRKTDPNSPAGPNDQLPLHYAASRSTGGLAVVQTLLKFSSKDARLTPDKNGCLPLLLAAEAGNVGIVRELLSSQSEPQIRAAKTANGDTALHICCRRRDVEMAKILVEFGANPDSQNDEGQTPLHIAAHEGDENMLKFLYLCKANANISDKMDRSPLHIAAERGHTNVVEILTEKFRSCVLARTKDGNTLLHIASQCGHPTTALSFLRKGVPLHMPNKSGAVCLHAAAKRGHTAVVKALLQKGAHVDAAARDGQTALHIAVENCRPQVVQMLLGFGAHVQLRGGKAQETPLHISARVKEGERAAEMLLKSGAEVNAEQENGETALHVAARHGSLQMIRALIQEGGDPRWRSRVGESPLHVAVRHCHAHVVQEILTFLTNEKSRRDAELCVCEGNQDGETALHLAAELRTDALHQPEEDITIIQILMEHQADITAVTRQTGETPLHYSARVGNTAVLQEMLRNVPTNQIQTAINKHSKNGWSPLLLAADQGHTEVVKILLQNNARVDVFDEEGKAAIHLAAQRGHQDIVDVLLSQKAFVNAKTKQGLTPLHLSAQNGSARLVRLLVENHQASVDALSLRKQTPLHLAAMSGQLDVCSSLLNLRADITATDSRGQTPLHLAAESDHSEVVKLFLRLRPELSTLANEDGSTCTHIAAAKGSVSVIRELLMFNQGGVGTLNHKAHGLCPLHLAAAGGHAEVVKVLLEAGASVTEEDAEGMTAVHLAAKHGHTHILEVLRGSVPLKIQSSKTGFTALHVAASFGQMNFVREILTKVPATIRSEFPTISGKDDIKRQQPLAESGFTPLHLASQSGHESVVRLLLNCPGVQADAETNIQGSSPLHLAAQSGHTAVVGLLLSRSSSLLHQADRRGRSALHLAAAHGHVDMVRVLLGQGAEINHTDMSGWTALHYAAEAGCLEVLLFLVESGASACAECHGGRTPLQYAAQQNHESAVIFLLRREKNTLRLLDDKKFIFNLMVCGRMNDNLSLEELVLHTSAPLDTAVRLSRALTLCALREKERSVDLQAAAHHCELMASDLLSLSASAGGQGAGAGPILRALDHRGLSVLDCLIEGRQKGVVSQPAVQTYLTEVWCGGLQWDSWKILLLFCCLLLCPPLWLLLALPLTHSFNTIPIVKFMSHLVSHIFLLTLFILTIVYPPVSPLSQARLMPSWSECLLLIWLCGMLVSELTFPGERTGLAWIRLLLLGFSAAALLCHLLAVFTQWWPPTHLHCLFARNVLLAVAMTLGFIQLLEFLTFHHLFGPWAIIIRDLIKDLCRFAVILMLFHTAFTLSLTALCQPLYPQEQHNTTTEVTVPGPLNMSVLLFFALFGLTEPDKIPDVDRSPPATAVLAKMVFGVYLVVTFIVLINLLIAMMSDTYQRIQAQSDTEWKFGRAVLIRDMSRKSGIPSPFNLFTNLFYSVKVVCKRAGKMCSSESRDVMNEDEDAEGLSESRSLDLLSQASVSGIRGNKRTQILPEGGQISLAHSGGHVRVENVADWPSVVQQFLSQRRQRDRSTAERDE

Oxytocin receptor = Oxytocin receptor (Homo sapiens, UniProt P30559); experiment: Fluorescence-based cell-based high throughput dose response assay for potentiators of Oxytocin Receptor (OXTR). [Related pubchem assays: 434985 (Confirmation screen (OXTR potentiators in triplicate)), 2481 (Summary (OXTR potentiators)), 2445 (Primary screen (OXTR potentiators in singlicate))]; format: functional
Chain of Oxytocin receptor (P30559 whole entry): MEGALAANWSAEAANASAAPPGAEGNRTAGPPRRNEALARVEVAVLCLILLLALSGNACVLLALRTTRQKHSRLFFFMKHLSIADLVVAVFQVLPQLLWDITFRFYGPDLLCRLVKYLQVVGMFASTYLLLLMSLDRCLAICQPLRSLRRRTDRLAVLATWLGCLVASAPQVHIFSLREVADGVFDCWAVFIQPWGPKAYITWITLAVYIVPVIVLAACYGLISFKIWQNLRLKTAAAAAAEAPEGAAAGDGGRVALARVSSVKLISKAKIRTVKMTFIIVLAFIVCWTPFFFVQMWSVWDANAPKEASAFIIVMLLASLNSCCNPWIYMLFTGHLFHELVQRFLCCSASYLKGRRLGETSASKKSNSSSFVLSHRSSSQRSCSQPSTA

Chain of Neuropeptide Y receptor type 2 (P49146 whole entry): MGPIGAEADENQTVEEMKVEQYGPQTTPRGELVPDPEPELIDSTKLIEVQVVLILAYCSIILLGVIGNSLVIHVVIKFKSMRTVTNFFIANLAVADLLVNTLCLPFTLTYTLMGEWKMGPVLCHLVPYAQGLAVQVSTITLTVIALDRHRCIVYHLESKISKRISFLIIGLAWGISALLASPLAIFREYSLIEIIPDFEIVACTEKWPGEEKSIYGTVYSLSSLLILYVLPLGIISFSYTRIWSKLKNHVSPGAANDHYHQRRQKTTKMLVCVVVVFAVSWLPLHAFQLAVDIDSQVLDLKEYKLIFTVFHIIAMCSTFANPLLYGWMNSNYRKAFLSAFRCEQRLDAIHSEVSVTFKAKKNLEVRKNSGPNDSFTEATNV

COc1ccc(N(C)S(=O)(=O)c2cccc(C(=O)NC3CCC(C)CC3)c2)cc1 (stereo not drawn)
IC50 [1]: > 35 µM (not active)
IC50 [2]: > 35 µM (not active)

N=C1SCC(=O)N1c1ncc(Cc2cccc(Cl)c2)s1
EC50 [3]: 0.244 µM (active)
EC50 (Streptococcus): 3.33 µM (active)
IC50 [4]: 2.63 µM (active)
EC50 (Mucolipin-3): 5.44 µM (active)
EC50 (Ion channel NompC): > 29.9 µM (not active)

CCOc1ccccc1NC(=O)c1cccc(NC(=O)CC(c2ccccc2)c2ccccc2)c1
EC50 (Oxytocin receptor): > 29.9 µM (not active)

— ChEMBL document CHEMBL1201862, “PubChem BioAssay data set” (2004)
